Values after ≈ are worked out from the molar mass of the structure shown. One block for each molecule: values may come before it.
Legend:
Assay type in all cases: functional
[1] = Antioxidant activity assessed as ABTS radical scavenging activity at 3 mg/ml incubated for 2 hrs in dark by spectrophotometric analysis (reference value: 1 to 9%)
[2] = Antioxidant activity assessed as ABTS radical scavenging activity at 1 mg/ml incubated for 2 hrs in dark by spectrophotometric analysis (reference value: 1 to 9%)
[3] = Antioxidant activity assessed as DPPH free radical scavenging activity at 3 mg/ml incubated for 20 mins in dark (reference value: 1 to 9%)
[4] = Antioxidant activity assessed as DPPH free radical scavenging activity at 0.5 mg/ml incubated for 20 mins in dark (reference value: 1 to 9 %)
[5] = Antioxidant activity assessed as reduction in beta-carotene/linoleic acid bleaching activity at 1 mg/ml after 2 hrs by spectrophotometric method (reference value: 1 to 8%); design: scale not given: the % may be the effect or the level left
[6] = Antioxidant activity assessed as DPPH free radical scavenging activity incubated for 20 mins in dark
[7] = Antioxidant activity assessed as reduction in beta-carotene/linoleic acid bleaching activity at 0.5 mg/ml after 2 hrs by spectrophotometric method (reference value: 1 to 8 %); design: scale not given: the % may be the effect or the level left
[8] = Antioxidant activity assessed as reduction in beta-carotene/linoleic acid bleaching activity at 3 mg/ml after 2 hrs by spectrophotometric method (reference value: 1 to 8%); design: scale not given: the % may be the effect or the level left
[9] = Antioxidant activity assessed as ABTS radical scavenging activity incubated for 2 hrs in dark by spectrophotometric analysis
[10] = Antioxidant activity assessed as reduction in beta-carotene/linoleic acid bleaching activity at 2.5 mg/ml after 2 hrs by spectrophotometric method (reference value: 1 to 8%); design: scale not given: the % may be the effect or the level left
[11] = Antioxidant activity assessed as ABTS radical scavenging activity at 2 mg/ml incubated for 2 hrs in dark by spectrophotometric analysis (reference value: 1 to 9%)
[12] = Antioxidant activity assessed as DPPH free radical scavenging activity at 2.5 mg/ml incubated for 20 mins in dark (reference value: 1 to 9%)
[13] = Antioxidant activity assessed as DPPH free radical scavenging activity at 1 mg/ml incubated for 20 mins in dark (reference value: 1 to 9%)
[14] = Antioxidant activity assessed as ABTS radical scavenging activity at 0.5 mg/ml incubated for 2 hrs in dark by spectrophotometric analysis (reference value: 1 to 9 %)
[15] = Antioxidant activity assessed as ABTS radical scavenging activity at 2.5 mg/ml incubated for 2 hrs in dark by spectrophotometric analysis (reference value: 1 to 9%)
[16] = Antioxidant activity assessed as DPPH free radical scavenging activity at 2 mg/ml incubated for 20 mins in dark (reference value: 1 to 9%)
[17] = Antioxidant activity assessed as reduction in beta-carotene/linoleic acid bleaching activity at 2 mg/ml after 2 hrs by spectrophotometric method (reference value: 1 to 8%); design: scale not given: the % may be the effect or the level left
[18] = Antioxidant activity assessed as reduction in beta-carotene/linoleic acid bleaching activity after 2 hrs by spectrophotometric method

Structure (SMILES): CC(C)[C@@H]1CC[C@@H](C)C[C@@]12N(C)C(=O)[C@@H]1[C@H]3C(=O)N(C)C(=O)[C@H]3ON12
Activity [1]: 75.3%
Activity [2]: 41.5%
Activity [3]: 64%
Activity [4]: 18.2%
Activity [5]: 47.7%
Activity [6]: Dose-dependent effect
IC50 [6]: 1650 µg/mL (≈ 4.72 mM)
Activity [7]: 36.5%
Activity [8]: 67.5%
IC50 [9]: 1400 µg/mL (≈ 4.01 mM)
IC50 [18]: 2160 µg/mL (≈ 6.18 mM)
Activity [10]: 57.2%
Activity [11]: 59.9%
Activity [12]: 55.8%
Activity [13]: 43.1%
Activity [14]: 39.2%
Activity [15]: 70.3%
Activity [16]: 53.4%
Activity [17]: 49.7%

Structure (SMILES): CC(C)[C@@H]1CC[C@@H](C)C[C@@]12N(C)C(=O)[C@@H]1[C@H]3C(=O)N(c4ccccc4)C(=O)[C@H]3ON12
Activity [1]: 73.5%
Activity [2]: 29.7%
Activity [3]: 80.7%
Activity [4]: 21.6%
Activity [5]: 35.4%
Activity [6]: Dose-dependent effect
IC50 [6]: 900 µg/mL (≈ 2.19 mM)
Activity [7]: 28.7%
Activity [8]: 58.9%
IC50 [9]: 2250 µg/mL (≈ 5.47 mM)
IC50 [18]: 2310 µg/mL (≈ 5.61 mM)
Activity [10]: 53.1%
Activity [11]: 41%
Activity [12]: 76.2%
Activity [13]: 54.9%
Activity [14]: 14.7%
Activity [15]: 58.6%
Activity [16]: 74.2%
Activity [17]: 48.2%

Structure (SMILES): Cc1c(C)c2c(c(C)c1O)CCC(C)(C(=O)O)O2 (stereo unspecified) [TROLOX]
Activity [1]: 91.8%
Activity [2]: 85.5%
IC50 [9]: 300 µg/mL (≈ 1.2 mM)
Activity [11]: 89.2%
Activity [14]: 82.1%
Activity [15]: 90.8%

Structure (SMILES): CC(C)[C@@H]1CC[C@@H](C)C[C@@]12N(C)C(=O)[C@@H]1[C@H]3C(=O)N(c4ccc(Cl)cc4)C(=O)[C@H]3ON12
Activity [1]: 74%
Activity [2]: 39.9%
Activity [3]: 47.2 to 63.9%
Activity [4]: 18.1%
Activity [5]: 53.7%
Activity [6]: Dose-dependent effect
IC50 [6]: 2150 µg/mL (≈ 4.82 mM)
Activity [7]: 47.5%
Activity [8]: 73.2%
IC50 [9]: 2000 µg/mL (≈ 4.48 mM)
IC50 [18]: 710 µg/mL (≈ 1.59 mM)
Activity [10]: 61.3%
Activity [11]: 49.4%
Activity [12]: 53.1%
Activity [13]: 31.7%
Activity [14]: 29.7%
Activity [15]: 60.1%
Activity [16]: 48.2%
Activity [17]: 56.4%

Now from value to molecule, other results behind:

IC50 [6]: 1550 µg/mL (≈ 4.62 mM)
IC50 [9]: 1500 µg/mL (≈ 4.47 mM)
Structure (SMILES): CC(C)[C@@H]1CC[C@@H](C)C[C@@]12N(C)C(=O)[C@@H]1[C@H]3C(=O)NC(=O)[C@H]3ON12
Activity [1]: 72%
Activity [2]: 42.6%
Activity [3]: 80.3%
Activity [4]: 21.6%
Activity [5]: 35.6%
Activity [6]: Dose-dependent effect
Activity [7]: 25.9%
Activity [8]: 47.2%
Activity [10]: 38%
Activity [11]: 57.2%
Activity [12]: 67.2%
Activity [13]: 39.3%
Activity [14]: 23.5%
Activity [15]: 70%
Activity [16]: 58.7%
Activity [17]: 37.1%

IC50 [6]: 720 µg/mL (≈ 3.27 mM)
IC50 [18]: 930 µg/mL (≈ 4.22 mM)
Structure (SMILES): Cc1cc(C(C)(C)C)c(O)c(C(C)(C)C)c1 [BUTYLATED HYDROXYTOLUENE]
Activity [3]: 85.8%
Activity [4]: 33.8%
Activity [5]: 52.3%
Activity [7]: 39.6%
Activity [8]: 79.2%
Activity [10]: 75.1%
Activity [12]: 85.2%
Activity [13]: 69.2%
Activity [16]: 84.8%
Activity [17]: 65.9%

IC50 [6]: 2920 µg/mL (≈ 6.33 mM)
IC50 [9]: 2520 µg/mL (≈ 5.46 mM)
IC50 [18]: 2680 µg/mL (≈ 5.81 mM)
Structure (SMILES): CC(C)[C@@H]1CC[C@@H](C)C[C@@]12N(C)C(=O)[C@@H]1[C@H]3C(=O)N(c4ccc5ccccc5c4)C(=O)[C@H]3ON12
Activity [1]: 60.1%
Activity [2]: 33.2%
Activity [3]: 50.9%
Activity [4]: 13.8%
Activity [5]: 29.6%
Activity [6]: Dose-dependent effect
Activity [7]: 24.5%
Activity [8]: 57.4%
Activity [10]: 45.1%
Activity [11]: 43.6%
Activity [12]: 39.5%
Activity [13]: 27.6%
Activity [14]: 25.4%
Activity [15]: 47.9%
Activity [16]: 35%
Activity [17]: 36.5%

IC50 [6]: 1880 µg/mL (≈ 4.42 mM)
IC50 [9]: 2700 µg/mL (≈ 6.35 mM)
IC50 [18]: 1930 µg/mL (≈ 4.54 mM)
Structure (SMILES): Cc1cccc(N2C(=O)[C@H]3[C@H](ON4[C@@H]3C(=O)N(C)[C@@]43C[C@H](C)CC[C@H]3C(C)C)C2=O)c1
Activity [1]: 52.4%
Activity [2]: 25.8%
Activity [3]: 73.8%
Activity [4]: 26.8%
Activity [5]: 39%
Activity [6]: Dose-dependent effect
Activity [7]: 25%
Activity [8]: 65.8%
Activity [10]: 57.6%
Activity [11]: 35.3%
Activity [12]: 57.5%
Activity [13]: 38.7%
Activity [14]: 16.1%
Activity [15]: 47.7%
Activity [16]: 49.9%
Activity [17]: 43.6%
